Assay results as given in publication PMC3196344 (Nature medicine, 2009).

Assays:
CD4+/CD8+ thymocytes = experiment: Flow cytometry of thymocytes from dex-treated mice; type: in vivo, BALB/c mice; conditions: measured by a drop in this cell population over time; dex 50 mg/kg IP
thymocytes = conditions: after dex treatment; cited from earlier work
[1] = exposed during late stages of apoptosis; cited from earlier work
[2] = leading to high background signals; cited from earlier work
caspase-3/7 = experiment: Caspase labeling in COLO205 tumors of Apomab-treated mice, SDS-PAGE; type: in vivo, human colorectal cancer COLO205 xenograft in nude mice; conditions: Apomab 10 mg/kg IV; AB50-Cy5 50 nmol IV 1 h; COLO205 xenograft
legumain [3] = experiment: Legumain labeling in COLO205 tumors of Apomab-treated mice, SDS-PAGE; type: in vivo, human colorectal cancer COLO205 xenograft in nude mice; conditions: Apomab 10 mg/kg IV; AB50-Cy5
caspases-3/7 = conditions: cited from earlier work
cathepsins = conditions: cited from earlier work
legumain [4] = conditions: cited from earlier work

C[C@@H]1C[C@H]2[C@@H]3CCC4=CC(=O)C=C[C@]4(C)[C@@]3(F)[C@@H](O)C[C@]2(C)[C@@]1(O)C(=O)CO [dexamethasone]
induction of apoptosis in CD4+/CD8+ cells (CD4+/CD8+ thymocytes): specifically induced apoptosis in CD4+/CD8+ cells
TUNEL+ staining at 18 and 24 hours (thymocytes): sharp decrease

Annexin V: protein with high affinity for phosphatidylserines exposed during the late stages of apoptosis
affinity for phosphatidylserines [1]: high affinity
clearance in vivo [2]: slow clearance in vivo

Apomab: monoclonal antibody that induces the extrinsic apoptosis pathway by binding to death receptor 5
time of optimal (peak) caspase activity after Apomab (caspase-3/7): 12 h
legumain labeling over time course after Apomab (legumain [3]): constant throughout the time course

Asp-Glu-Val-Asp [DEVD]
recognition by caspases-3/7 (caspases-3/7): optimal
recognition by cathepsins (cathepsins): efficiently recognized
recognition by legumain (legumain [4]): efficiently recognized
